Source: ChEMBL document CHEMBL4732239, “Novel molecule combinations and corresponding hybrids targeting artemisinin-resistant Plasmodium falciparum parasites” (Bioorg Med Chem Lett, 2021)

Assays:
[1] = Selective index, ratio of CC50 for African green monkey Vero cells to IC50 for plasmodium falciparum
[2] = Cytotoxicity against African green monkey Vero cells assessed as inhibition of cell proliferation; assay type: cell-based; details: chlorocebus sabaeus
Plasmodium falciparum [3] = test: Antimalarial activity against ring stage artemisinin-resistant Plasmodium falciparum F32-ART5 assessed as time taken for recrudescence by measuring parasitemia at 7 uM after 48 hrs; assay type: functional
Plasmodium falciparum [4] = test: Antimalarial activity against Plasmodium falciparum assessed as difference of time taken for recrudescence Plasmodium falciparum […] between ring stage artemisinin-sensitive Plasmodium falciparum F32-TEM measured at 7 uM after 48 hrs; assay type: functional
Plasmodium falciparum [5] = test: Antimalarial activity against ring stage artemisinin-resistant Plasmodium falciparum F32-ART5 assessed as time taken for recrudescence by measuring parasitemia pretreated with dihydroartemisinin for 6 hrs followed by treated at 7 uM for 48 hrs by Quiescent-stage Survival Assay; assay type: functional
Plasmodium falciparum [6] = test: Antimalarial activity against artemisinin-sensitive Plasmodium falciparum F32-TEM by SYBR green dye based fluorescence assay; assay type: functional, organism-based
Plasmodium falciparum [7] = test: Antimalarial activity against ring stage artemisinin-sensitive Plasmodium falciparum F32-TEM assessed as time taken for recrudescence by measuring parasitemia at 7 uM after 48 hrs; assay type: functional
Plasmodium falciparum [8] = test: Antimalarial activity against Plasmodium falciparum assessed as difference of time taken for recrudescence Plasmodium falciparum […] between ring stage artemisinin-sensitive Plasmodium falciparum F32-TEM measured at 18 uM after 48 hrs; assay type: functional
Plasmodium falciparum [9] = test: Antimalarial activity against ring stage artemisinin-sensitive Plasmodium falciparum F32-TEM assessed as time taken for recrudescence by measuring parasitemia at 18 uM after 48 hrs; assay type: functional
Plasmodium falciparum [10] = test: Antimalarial activity against ring stage artemisinin-resistant Plasmodium falciparum F32-ART5 assessed as time taken for recrudescence by measuring parasitemia at 18 uM after 48 hrs; assay type: functional
Plasmodium falciparum [11] = test: Antimalarial activity against ring stage artemisinin-sensitive Plasmodium falciparum F32-TEM assessed as time taken for recrudescence by measuring parasitemia at 1 uM after 48 hrs; assay type: functional
Plasmodium falciparum [12] = test: Antimalarial activity against ring stage artemisinin-resistant Plasmodium falciparum F32-ART5 assessed as time taken for recrudescence by measuring parasitemia pretreated with dihydroartemisinin for 6 hrs followed by treated at 200 nM for 48 hrs by Quiescent-stage Survival Assay; assay type: functional
Plasmodium falciparum [13] = test: Antimalarial activity against Plasmodium falciparum assessed as difference of time taken for recrudescence Plasmodium falciparum F32-ART5 between ring stage artemisinin-sensitive Plasmodium falciparum F32-TEM measured at 1 uM after 48 hrs
Plasmodium falciparum [14] = test: Antimalarial activity against ring stage artemisinin-resistant Plasmodium falciparum F32-ART5 assessed as time taken for recrudescence by measuring parasitemia at 1 uM after 48 hrs; assay type: functional
Plasmodium falciparum [15] = test: Antimalarial activity against Plasmodium falciparum assessed as difference of time taken for recrudescence Plasmodium falciparum […] between ring stage artemisinin-sensitive Plasmodium falciparum F32-TEM measured at 20 uM after 48 hrs; assay type: functional
Plasmodium falciparum [16] = test: Antimalarial activity against ring stage artemisinin-sensitive Plasmodium falciparum F32-TEM assessed as time taken for recrudescence by measuring parasitemia at 20 uM after 48 hrs; assay type: functional
Plasmodium falciparum [17] = test: Antimalarial activity against ring stage artemisinin-resistant Plasmodium falciparum F32-ART5 assessed as time taken for recrudescence by measuring parasitemia at 20 uM after 48 hrs; assay type: functional

O=C(CCCCCCC(=O)Oc1cc(Cl)ccc1Oc1ccc(Cl)cc1Cl)OC1=C([C@H]2CC[C@H](c3ccc(Cl)cc3)CC2)C(=O)c2ccccc2C1=O
Ratio CC50/IC50 [1]: 10000 | CC50 [2]: 6000 nM | Time (Plasmodium falciparum [3]): 9 days | Time (Plasmodium falciparum [4]): 4 days | Time (Plasmodium falciparum [5]): 10 days | IC50 (Plasmodium falciparum [6]): 0.6 nM | Time (Plasmodium falciparum [7]): 12 days

C[C@@H]1CC[C@H]2[C@@H](C)C(=O)O[C@@H]3O[C@@]4(C)CC[C@@H]1[C@]32OO4 [ARTEMISININ]
Time (Plasmodium falciparum [8]): 12.5 days | Time (Plasmodium falciparum [9]): 22 days | Time (Plasmodium falciparum [10]): 9 days | IC50 (Plasmodium falciparum [6]): 18 nM

Oc1cc(Cl)ccc1Oc1ccc(Cl)cc1Cl [TRICLOSAN]
Ratio CC50/IC50 [1]: 5 | CC50 [2]: 25000 nM | Time (Plasmodium falciparum [3]): 5 days | Time (Plasmodium falciparum [5]): 7 days | Time (Plasmodium falciparum [7]): 6 days

O[C@@H](c1cc(C(F)(F)F)nc2c(C(F)(F)F)cccc12)[C@H]1CCCCN1 [(S,R)-MEFLOQUINE]
Time (Plasmodium falciparum [11]): >30 days | Ratio CC50/IC50 [1]: 241 | CC50 [2]: 21000 nM | IC50 (Plasmodium falciparum [6]): 87 nM

Cc1[nH]c(C)c(-c2ccc(Oc3ccc(OC(F)(F)F)cc3)cc2)c(=O)c1Cl
Ratio CC50/IC50 [1]: 190 | CC50 [2]: 8000 nM | Time (Plasmodium falciparum [3]): 2 days | Time (Plasmodium falciparum [4]): 3 days | IC50 (Plasmodium falciparum [6]): 42 nM | Time (Plasmodium falciparum [7]): 8 days

CCN(CC)CCCC(C)Nc1ccnc2cc(Cl)ccc12 (stereo unspecified) [CHLOROQUINE]
Time (Plasmodium falciparum [12]): 8 days

Cl.O=C(CCC(=O)O[C@H](c1cc(C(F)(F)F)nc2c(C(F)(F)F)cccc12)[C@@H]1CCCCN1)OC1=C([C@H]2CC[C@H](c3ccc(Cl)cc3)CC2)C(=O)c2ccccc2C1=O
Time (Plasmodium falciparum [11]): 14 days | Ratio CC50/IC50 [1]: 6660 | CC50 [2]: 4000 nM | IC50 (Plasmodium falciparum [6]): 0.6 nM | Time (Plasmodium falciparum [13]): 0 days

O=C1C(O)=C([C@H]2CC[C@H](c3ccc(Cl)cc3)CC2)C(=O)c2ccccc21 [ATOVAQUONE]
Time (Plasmodium falciparum [11]): 14 days | Time (Plasmodium falciparum [14]): 11 days | Ratio CC50/IC50 [1]: 257 | CC50 [2]: 500 nM | Time (Plasmodium falciparum [3]): 21 days | Time (Plasmodium falciparum [4]): <=1 day | Time (Plasmodium falciparum [5]): 18 days | IC50 (Plasmodium falciparum [6]): 2.1 nM | Time (Plasmodium falciparum [13]): 3 days | Time (Plasmodium falciparum [7]): 23 days

Cl.O=C(CCCC(=O)O[C@H](c1cc(C(F)(F)F)nc2c(C(F)(F)F)cccc12)[C@@H]1CCCCN1)OC1=C([C@H]2CC[C@H](c3ccc(Cl)cc3)CC2)C(=O)c2ccccc2C1=O
Time (Plasmodium falciparum [11]): 14 days | Ratio CC50/IC50 [1]: 4545 | CC50 [2]: 5000 nM | IC50 (Plasmodium falciparum [6]): 1.1 nM | Time (Plasmodium falciparum [13]): 0 days

Cc1nc(C)c(-c2ccc(Oc3ccc(OC(F)(F)F)cc3)cc2)c(OC(=O)CCCCCCC(=O)Oc2cc(Cl)ccc2Oc2ccc(Cl)cc2Cl)c1Cl
Ratio CC50/IC50 [1]: >710 | CC50 [2]: > 120000 nM | Time (Plasmodium falciparum [15]): 1 days | Time (Plasmodium falciparum [16]): 3 days | Time (Plasmodium falciparum [3]): 3 days | Time (Plasmodium falciparum [4]): 0.6 days | Time (Plasmodium falciparum [17]): 2 days | IC50 (Plasmodium falciparum [6]): 169 nM | Time (Plasmodium falciparum [7]): 4 days
